Source: US20210228825A1, “METHODS FOR DIAGNOSING BRUGADA SYNDROME USING AN AEROSOL” (InCarda Therapeutics, Inc., priority 2018, published 2021)
Where two headings read alike, the source gives them in different places.

Assay: Pharmacokinetics analysis in human clinical trial FLE-001, inhalation versus intravenous flecainide, venous plasma
Assay type: in vivo
Conditions: healthy adult volunteers, read-out: Peak plasma concentration of flecainide (Cmax)
Experimental: This example describes pharmacokinetics (PK) analysis performed during a human clinical trial (FLE-001) in which inhalation administration of flecainide was tested for safety and compared against intravenous administration of flecainide.
This was an open label non-randomized crossover in a cohort of 6 evaluable healthy adult volunteers. This part of the study consisted of two periods with each subject receiving a total of 2 doses of flecainide, one dose in each period. In Period 1, 3 subjects received flecainide acetate solution by inhalation at the dose level of 30 mg estimated lung total dose (eTLD). and 3 subjects received a single dose of 2 mg/kg (or 150 mg, whichever is less) via a 10 min intravenous (IV) infusion of flecainide (Tambocor™ Injection; approved and used in clinical practice in Australia). In Period 2, the subjects who received flecainide inhalation solution in Period 1 now received a single dose of IV flecainide (2 mg/kg or 150 mg, whichever is less, via a 10 min infusion), while the subjects who received IV flecainide in Period 1 now received flecainide inhalation solution (30 mg eTLD). […] The interpretation is that there was no carry over effect of treatment or other changes in the subjects' vital signs and ECG intervals between the two periods. […]

Cmax (intravenous 2 mg/kg (or 150 mg, whichever is less), 10 min infusion, mean±SD): 0.749 ± 0.308 µg/mL
Cmax (inhaled, inhalation of flecainide acetate solution, 30 mg eTLD): 0.12 µg/mL
Compound: O=C(NCC1CCCCN1)c1cc(OCC(F)(F)F)ccc1OCC(F)(F)F (centres unmarked) [flecainide]
